Measured values as given in patent US4914086A, “Method for treating African human and veterinary trypanosomiases” (priority 1987, dated 1990).

Key:
[1] = tested on: human colon carcinoma cells; details: cited from earlier work
T. b. brucei EATRO 110 = assay: Drug screen, acute EATRO 110 mouse infection (Tables 1, 3); type: in vivo, Trypanosoma brucei brucei (in Swiss-Webster mice); details: for activity in words: 300 mg/kg; for # Cured/Total / % Cured: Table 1, treatment begun 24 h post infection
Source text: T. b. brucei EATRO 110 isolate was maintained as described (Bacchi, C. J., H. C. Nathan, S. H. Hutner, P. P. McCann and A. Sjoerdsma; Polyamine metabolism: a potential chemotherapeutic target in trypanosomes. Science 210: 332-334, 1980). It produces an acute, rapidly fatal parasitemia which is lethal to mice 3-5 days after inoculation. Two T. B. brucei strains, TREU 667 and LUMP 1001 developed by Jennings and coworkers (Jennings, F. W., D. D. Whitelaw and G. M. Urquhart; The relationship between duration of infection with Trypanosoma brucei in mice and the efficacy of chemotherapy. Parasitology 75: 143-153, 1977/Jennings, F. W. and G. D. Gray; Relapsed parasitemia following chemotherapy of chronic T. brucei infections in mice and its relation to cerebral trypanosomes; Contr. Microbiol. Immunol. 7 147-154, 1983) were used as CNS models. Both produce infections which are refractory to Berenil® (diminazene aceturate) and develop within 21 days after inoculation. They are not usually fatal until >40 days after inoculation. LUMP 1001 causes a more virulent CNS infection than TREU 667, and is regarded as more difficult to cure (Jennings, F. W. and G. D. Gray. Relapsed parasitemia following chemotherapy of chronic T. brucei infections in mice and its relation to cerebral trypanosomes. Contr. Microbiol. Immunol. 7 147-154, 1983).
Swiss-Webster (25-30 g) mice were used throughout. In the EATRO 110 model, groups of 100 mice were infected (10^5 trypanosomes/mouse) and the infection was allowed to develop 24 hours before commencing therapy. Animals were divided into groups of 5 before treatment. Cured animals survived >30 days beyond deaths of controls. All compounds were administered by i.p. injection.
Other methods as in Table 1.

SMILES | incorporation into DNA in words [1] | activity in words (T. b. brucei EATRO 110) | # Cured/Total (T. b. brucei EATRO 110; 250 mg/kg i.p.) | % Cured (T. b. brucei EATRO 110; 250 mg/kg i.p.) [%] | # Cured/Total (T. b. brucei EATRO 110; 300 mg/kg i.p.) | % Cured (T. b. brucei EATRO 110; 300 mg/kg i.p.) [%]
Nc1ncnc2c([C@@H]3O[C@H](CO)[C@@H](O)[C@H]3O)n[nH]c12 [formycin A] | can be incorporated into DNA | – | – | – | – | –
O=c1ncnc2n([C@H]3O[C@@H](CO)[C@H](O)[C@@H]3O)[nH]cc1-2 (stereo in doubt) [Allopurinol Riboside, reference compound] | – | completely inactive | 0/5 | 0 | – | –
Oc1ncnc2[nH]ncc12 [Allopurinol, reference compound] | – | completely inactive | – | – | 0/5 | 0
